Experimental findings from ChEMBL document CHEMBL1159187, “Novel polyamine derivatives as potent competitive inhibitors of Trypanosoma cruzi trypanothione reductase” (Bioorg Med Chem Lett, 1995) are described below.

Activity calls are given as the source filed them. No cut-off for these calls is given here. Some results are limits rather than exact numbers.

In assay [1] the target is Glutathione reductase (Saccharomyces cerevisiae) (UniProt P41921). Description: Compound was evaluated for the competitive inhibition of glutathione reductase from yeast; No inhibition.
The next assay has as its target Trypanothione reductase (Trypanosoma cruzi, UniProt P28593). Description: Compound was evaluated for the competitive inhibition of trypanothione reduction by recombinant Trypanothione reductase from Trypanosoma cruzi.

Chain of Trypanothione reductase (P28593 whole entry): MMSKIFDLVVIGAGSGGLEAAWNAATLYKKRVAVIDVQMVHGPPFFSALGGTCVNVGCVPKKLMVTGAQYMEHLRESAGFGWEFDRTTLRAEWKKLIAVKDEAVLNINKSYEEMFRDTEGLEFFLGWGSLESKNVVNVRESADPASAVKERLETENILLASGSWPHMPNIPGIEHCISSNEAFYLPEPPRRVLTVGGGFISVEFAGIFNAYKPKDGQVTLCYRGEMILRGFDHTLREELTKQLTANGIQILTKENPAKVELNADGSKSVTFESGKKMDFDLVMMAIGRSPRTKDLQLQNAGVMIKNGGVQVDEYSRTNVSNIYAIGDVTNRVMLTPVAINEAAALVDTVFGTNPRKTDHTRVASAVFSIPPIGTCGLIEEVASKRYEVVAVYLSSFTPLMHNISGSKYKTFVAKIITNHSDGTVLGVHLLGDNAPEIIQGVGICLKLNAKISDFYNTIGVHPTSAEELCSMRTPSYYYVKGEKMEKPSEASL
Chain of Glutathione reductase (Saccharomyces cerevisiae) (P41921 whole entry, looked up): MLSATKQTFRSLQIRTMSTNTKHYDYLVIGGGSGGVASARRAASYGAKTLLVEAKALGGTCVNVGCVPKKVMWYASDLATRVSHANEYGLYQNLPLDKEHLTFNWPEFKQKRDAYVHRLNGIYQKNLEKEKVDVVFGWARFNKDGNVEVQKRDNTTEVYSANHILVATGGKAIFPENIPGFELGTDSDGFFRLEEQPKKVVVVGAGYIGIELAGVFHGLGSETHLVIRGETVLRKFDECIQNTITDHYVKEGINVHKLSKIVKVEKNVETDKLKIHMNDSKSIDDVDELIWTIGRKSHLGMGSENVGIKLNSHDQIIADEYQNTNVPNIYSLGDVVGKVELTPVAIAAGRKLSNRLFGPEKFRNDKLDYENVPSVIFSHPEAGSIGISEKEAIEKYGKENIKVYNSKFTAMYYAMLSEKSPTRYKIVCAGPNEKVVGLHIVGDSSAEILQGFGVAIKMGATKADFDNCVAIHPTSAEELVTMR

Regarding `NCCCN(CCCCN(CCCN)Cc1ccc2ccccc2c1)Cc1ccc2ccccc2c1`, the result in assay [1] was inactive. Moreover, on Trypanothione reductase, the Ki came out at 5.5 µM. With `NCCCN(CCCCN(CCCN)Cc1ccccc1)Cc1ccccc1`, the Ki on Trypanothione reductase was 19 µM. Take `NCCCN(CCCCN(CCCN)CCCc1ccccc1)CCCc1ccccc1`: the outcome in assay [1] was inactive. The Ki on Trypanothione reductase came to 3.5 µM. The like results for `c1ccc2cc(CNCCCCNCCCNCc3ccc4ccccc4c3)ccc2c1` were, in that order, “inactive” and 9.5 µM. With `NCCCCN(CCCN)Cc1ccc2ccccc2c1`, the Ki at Trypanothione reductase came to 108 µM. Still for that read-out and setting: the same measure for `NCCCCN(CCCN)C(=O)OCc1ccccc1`: 280 µM.

In the case of `O=C(NCCCCNCCCNC(=O)c1ccccc1)c1ccccc1`, the inhibition constant (Ki) on Trypanothione reductase was > 2000 µM.
